Assays:
[1] = test system: Mus musculus; test: Neurotoxicity against Mus musculus MFI (mouse) assessed as effect on respiration at 75 mg/kg, ip; format: toxicity, organism-based; set-up: dose 75 mg/kg, route intraperitoneal; conditions: in vivo
[2] = test system: Mus musculus; test: Neurotoxicity against Mus musculus MFI (mouse) assessed as epilepsy at 40 mg/kg, ip; format: toxicity, organism-based; set-up: dose 40 mg/kg, route intraperitoneal; conditions: in vivo
[3] = test system: Mus musculus; test: […] activity in Mus musculus MFI (mouse) assessed as inhibition of PBQ-induced writhing at 75 mg/kg, ip administered 1.5 hr prior to PBQ-challenge measured after 10 min relative to aspirin; format: functional; conditions: route intraperitoneal
[4] = test system: Mus musculus; test: Neurotoxicity against Mus musculus MFI (mouse) assessed as epilepsy at 110 mg/kg, ip; format: toxicity, organism-based; set-up: dose 110 mg/kg, route intraperitoneal; conditions: in vivo
[5] = test system: Mus musculus; test: Neurotoxicity against Mus musculus MFI (mouse) assessed as epilepsy at 75 mg/kg, ip; format: toxicity, organism-based; set-up: dose 75 mg/kg, route intraperitoneal; conditions: in vivo
[6] = test system: Mus musculus; test: Neurotoxicity against Mus musculus MFI (mouse) assessed as tail erection at 75 mg/kg, ip; format: toxicity, organism-based; set-up: dose 75 mg/kg, route intraperitoneal; conditions: in vivo
[7] = test system: Mus musculus; test: Neurotoxicity against Mus musculus MFI (mouse) assessed as tremors at 110 mg/kg, ip; format: toxicity, organism-based; set-up: dose 110 mg/kg, route intraperitoneal; conditions: in vivo
[8] = test system: Mus musculus; test: Neurotoxicity against Mus musculus MFI (mouse) assessed as eye protrusion at 75 mg/kg, ip; format: toxicity, organism-based; set-up: dose 75 mg/kg, route intraperitoneal; conditions: in vivo
[9] = test system: Mus musculus; test: […] activity in Mus musculus MFI (mouse) assessed as inhibition of PBQ-induced writhing at 110 mg/kg, ip administered 1.5 hr prior to PBQ-challenge measured after 10 min relative to aspirin; format: functional; conditions: route intraperitoneal
[10] = test system: Mus musculus; test: […] activity in ip dosed Mus musculus MFI (mouse) assessed as inhibition of PBQ-induced writhing administered 1.5 hr prior to PBQ-challenge measured after 10 min; format: functional; conditions: read-out: MED
[11] = test system: Mus musculus; test: Neurotoxicity against Mus musculus MFI (mouse) assessed as tail erection at 40 mg/kg, ip; format: toxicity, organism-based; set-up: dose 40 mg/kg, route intraperitoneal; conditions: in vivo
[12] = test system: Mus musculus; test: Neurotoxicity against Mus musculus MFI (mouse) assessed as effect on respiration at 40 mg/kg, ip; format: toxicity, organism-based; set-up: dose 40 mg/kg, route intraperitoneal; conditions: in vivo
[13] = test system: Mus musculus; test: Neurotoxicity against Mus musculus MFI (mouse) assessed as eye protrusion at 110 mg/kg, ip; format: toxicity, organism-based; set-up: dose 110 mg/kg, route intraperitoneal; conditions: in vivo
[14] = test system: Mus musculus; test: Neurotoxicity in ip dosed Mus musculus MFI (mouse); format: toxicity, organism-based; conditions: in vivo
[15] = test system: Mus musculus; test: Neurotoxicity against Mus musculus MFI (mouse) assessed as tremors at 40 mg/kg, ip; format: toxicity, organism-based; set-up: dose 40 mg/kg, route intraperitoneal; conditions: in vivo
[16] = test system: Mus musculus; test: Neurotoxicity against Mus musculus MFI (mouse) assessed as irritability at 110 mg/kg, ip; format: toxicity, organism-based; set-up: dose 110 mg/kg, route intraperitoneal; conditions: in vivo
[17] = test system: Mus musculus; test: Neurotoxicity against Mus musculus MFI (mouse) assessed as muscle twitching at 40 mg/kg, ip; format: toxicity, organism-based, Muscle tissue; set-up: dose 40 mg/kg, route intraperitoneal; conditions: in vivo
[18] = test system: Mus musculus; test: Neurotoxicity against Mus musculus MFI (mouse) assessed as hair erection at 40 mg/kg, ip; format: toxicity, organism-based; set-up: dose 40 mg/kg, route intraperitoneal; conditions: in vivo
[19] = test system: Mus musculus; test: Neurotoxicity against Mus musculus MFI (mouse) assessed as excitation at 75 mg/kg, ip; format: toxicity, organism-based; set-up: dose 75 mg/kg, route intraperitoneal; conditions: in vivo
[20] = test system: Mus musculus; test: Neurotoxicity against Mus musculus MFI (mouse) assessed as tremors at 75 mg/kg, ip; format: toxicity, organism-based; set-up: dose 75 mg/kg, route intraperitoneal; conditions: in vivo
[21] = test system: Mus musculus; test: Neurotoxicity against Mus musculus MFI (mouse) assessed as eye protrusion at 40 mg/kg, ip; format: toxicity, organism-based; set-up: dose 40 mg/kg, route intraperitoneal; conditions: in vivo
[22] = test system: Mus musculus; test: Neurotoxicity against Mus musculus MFI (mouse) assessed as tail erection at 110 mg/kg, ip; format: toxicity, organism-based; set-up: dose 110 mg/kg, route intraperitoneal; conditions: in vivo
[23] = test system: Mus musculus; test: Neurotoxicity against Mus musculus MFI (mouse) assessed as excitation at 40 mg/kg, ip; format: toxicity, organism-based; set-up: dose 40 mg/kg, route intraperitoneal; conditions: in vivo
[24] = test system: Mus musculus; test: Neurotoxicity against Mus musculus MFI (mouse) assessed as irritability at 75 mg/kg, ip; format: toxicity, organism-based; set-up: dose 75 mg/kg, route intraperitoneal; conditions: in vivo
[25] = test system: Mus musculus; test: Neurotoxicity against Mus musculus MFI (mouse) assessed as muscle twitching at 110 mg/kg, ip; format: toxicity, organism-based, Muscle tissue; set-up: dose 110 mg/kg, route intraperitoneal; conditions: in vivo
[26] = test system: Mus musculus; test: Neurotoxicity against Mus musculus MFI (mouse) assessed as skeletal muscle incoordination at 110 mg/kg, ip; format: toxicity, organism-based, Muscle tissue; set-up: dose 110 mg/kg, route intraperitoneal; conditions: in vivo
[27] = test system: Mus musculus; test: […] activity in Mus musculus MFI (mouse) assessed as inhibition of PBQ-induced writhing at 40 mg/kg, ip administered 1.5 hr prior to PBQ-challenge measured after 10 min relative to aspirin; format: functional; conditions: route intraperitoneal
[28] = test system: Mus musculus; test: Neurotoxicity against Mus musculus MFI (mouse) assessed as hair erection at 110 mg/kg, ip; format: toxicity, organism-based; set-up: dose 110 mg/kg, route intraperitoneal; conditions: in vivo
[29] = test system: Mus musculus; test: Neurotoxicity against Mus musculus MFI (mouse) assessed as excitation at 110 mg/kg, ip; format: toxicity, organism-based; set-up: dose 110 mg/kg, route intraperitoneal; conditions: in vivo
[30] = test system: Mus musculus; test: Neurotoxicity against Mus musculus MFI (mouse) assessed as hair erection at 75 mg/kg, ip; format: toxicity, organism-based; set-up: dose 75 mg/kg, route intraperitoneal; conditions: in vivo
[31] = test system: Mus musculus; test: Neurotoxicity against Mus musculus MFI (mouse) assessed as skeletal muscle incoordination at 40 mg/kg, ip; format: toxicity, organism-based, Muscle tissue; set-up: dose 40 mg/kg, route intraperitoneal; conditions: in vivo
[32] = test system: Mus musculus; test: Neurotoxicity against Mus musculus MFI (mouse) assessed as muscle twitching at 75 mg/kg, ip; format: toxicity, organism-based, Muscle tissue; set-up: dose 75 mg/kg, route intraperitoneal; conditions: in vivo
[33] = test system: Mus musculus; test: Neurotoxicity against Mus musculus MFI (mouse) assessed as irritability at 40 mg/kg, ip; format: toxicity, organism-based; set-up: dose 40 mg/kg, route intraperitoneal; conditions: in vivo
[34] = test system: Mus musculus; test: Neurotoxicity against Mus musculus MFI (mouse) assessed as skeletal muscle incoordination at 75 mg/kg, ip; format: toxicity, organism-based, Muscle tissue; set-up: dose 75 mg/kg, route intraperitoneal; conditions: in vivo
[35] = test system: Mus musculus; test: Neurotoxicity against Mus musculus MFI (mouse) assessed as effect on respiration at 110 mg/kg, ip; format: toxicity, organism-based; set-up: dose 110 mg/kg, route intraperitoneal; conditions: in vivo

CC(CN1CCN(C)CC1)Oc1c(Br)cccc1Br.O=C(O)C(=O)O (racemic)
Activity [1]: Toxic
Activity [2]: Toxic
inhibition in vivo at 75 mg/kg [3]: 37.5%
Activity [4]: Toxic
Activity [5]: Toxic
Activity [6]: Toxic
Activity [7]: Toxic
Activity [8]: Toxic
inhibition in vivo at 110 mg/kg [9]: 100%
minimal effective dose [10]: 40 mg/kg
Activity [11]: Toxic
Activity [12]: Toxic
Activity [13]: Toxic
MTC [14]: 75 mg/kg
Activity [15]: Toxic
Activity [16]: Toxic
Activity [17]: Toxic
Activity [18]: Toxic
Activity [19]: Toxic
Activity [20]: Toxic
Activity [21]: Toxic
Activity [22]: Toxic
Activity [23]: Toxic
Activity [24]: Toxic
Activity [25]: Toxic
Activity [26]: Toxic
inhibition in vivo at 40 mg/kg [27]: 12.5%
Activity [28]: Toxic
Activity [29]: Toxic
Activity [30]: Toxic
Activity [31]: Toxic
Activity [32]: Toxic
Activity [33]: Toxic
Activity [34]: Toxic
Activity [35]: Toxic
